Our source for the Km values is article PMC8365446, “Structural determinants and distribution of phosphate specificity in ribonucleotide reductases” (The Journal of Biological Chemistry, 2021).

Each structure is given as a SMILES string. Where two headings read alike, the source gives them in different places.

Assay [1] relates to T1, TVNrdJm.
T1 construct: gene nrdJ
To be noted: read-out: apparent KM; effector dTTP, adenosylcobalamin, TCEP, 20 mmol L^−1 MgCl2, Tris pH 8.0, 40 °C; apparent fitted value, called lower boundary by authors (substrate inhibition omitted).

Assay [2] concerns T2, TVNrdJm.
T2 construct: gene nrdJ; monomeric-type class II RNR; pET28b(+) NdeI/HindIII, E. coli BL21(DE3); apical loop P-A-G-R with A67, G68, R69
Briefly: HPLC quantification of deoxyribonucleotide, Michaelis-Menten fit. In kind it is biochemical, Thermus virus P74-23. To be noted: effector dTTP, adenosylcobalamin, TCEP, 20 mmol L^−1 MgCl2, Tris pH 8.0, 40 °C.

For `Nc1nc2c(ncn2[C@@H]2O[C@H](COP(=O)(O)OP(=O)(O)O)[C@@H](O)[C@H]2O)c(=O)[nH]1` [GDP], the Km in the assay with TVNrdJm [1] is above 6850 µM. Consider `Nc1nc2c(ncn2[C@@H]2O[C@H](COP(=O)(O)OP(=O)(O)OP(=O)(O)O)[C@@H](O)[C@H]2O)c(=O)[nH]1` [GTP], for which the Km in the assay with TVNrdJm [2] came to 300 ± 60 µM.

What is called Km is the substrate concentration at which the rate is half of its maximum.
